Laboratory results as given in ChEMBL document CHEMBL5634077, “Recent advances in 1,2,3- and 1,2,4-triazole hybrids as antimicrobials and their SAR: A critical review” (2023).
Converted amounts (≈) assume the structure as drawn.

What was measured:
Staphylococcus aureus [1] = experiment: Antibacterial activity against Staphylococcus aureus ATCC 6538P; assay type: functional
Escherichia coli [2] = experiment: Antibacterial activity against Escherichia coli ATCC 8739; assay type: functional
Pseudomonas aeruginosa [3] = experiment: Antibacterial activity against Pseudomonas aeruginosa ATCC 9027; assay type: functional
Bacillus subtilis [4] = experiment: Antibacterial activity against Bacillus subtilis assessed as diameter of inhibition zone at 100 microg/ml incubated for 18 to 24 hrs by disc-diffusion method; assay type: functional; settings: time 18-24 hrs, read-out: DIZ
Staphylococcus aureus [5] = experiment: Antibacterial activity against Staphylococcus aureus assessed as diameter of inhibition zone at 100 microg/ml incubated for 18 to 24 hrs by disc-diffusion method; assay type: functional; settings: time 18-24 hrs, read-out: DIZ
Escherichia coli [6] = experiment: Antibacterial activity against Escherichia coli assessed as diameter of inhibition zone at 100 microg/ml incubated for 18 to 24 hrs by disc-diffusion method; assay type: functional; settings: time 18-24 hrs, read-out: DIZ
Proteus mirabilis = experiment: Antibacterial activity against Proteus mirabilis NCIM 2241 assessed as reduction in bacterial growth incubated for 18 to 24 hrs by broth microdilution method; assay type: functional; settings: time 18-24 hrs
Bacillus subtilis [7] = experiment: Antibacterial activity against Bacillus subtilis NCIM 2063 assessed as reduction in bacterial growth incubated for 18 to 24 hrs by broth microdilution method; assay type: functional; settings: time 18-24 hrs
Bacillus cereus [8] = experiment: Antibacterial activity against Bacillus cereus NCIM 2156 assessed as reduction in bacterial growth incubated for 18 to 24 hrs by broth microdilution method; assay type: functional; settings: time 18-24 hrs
Staphylococcus aureus [9] = experiment: Antibacterial activity against Staphylococcus aureus NCIM 2079 assessed as reduction in bacterial growth incubated for 18 to 24 hrs by broth microdilution method; assay type: functional; settings: time 18-24 hrs
Proteus vulgaris [10] = experiment: Antibacterial activity against Proteus vulgaris NCIM 2027 assessed as reduction in bacterial growth incubated for 18 to 24 hrs by broth microdilution method; assay type: functional; settings: time 18-24 hrs
Escherichia coli [11] = experiment: Antibacterial activity against Escherichia coli NCIM 2065 assessed as reduction in bacterial growth incubated for 18 to 24 hrs by broth microdilution method; assay type: functional; settings: time 18-24 hrs
Pseudomonas aeruginosa [12] = experiment: Antibacterial activity against Pseudomonas aeruginosa NCIM 2036 assessed as reduction in bacterial growth incubated for 18 to 24 hrs by broth microdilution method; assay type: functional; settings: time 18-24 hrs
Escherichia coli [13] = experiment: Antibacterial activity against Escherichia coli assessed as reduction in bacterial growth; assay type: functional
Bacillus subtilis [14] = experiment: Antibacterial activity against Bacillus subtilis assessed as reduction in bacterial growth; assay type: functional
Pseudomonas aeruginosa [15] = experiment: Antibacterial activity against Pseudomonas aeruginosa assessed as reduction in bacterial growth; assay type: functional
Escherichia coli [16] = experiment: Antibacterial activity against Escherichia coli assessed as reduction in bacterial growth by broth microdilution method; assay type: functional
Escherichia coli [17] = experiment: Antibacterial activity against Escherichia coli ATCC 8739 assessed as reduction in bacterial growth by micro-broth dilution method; assay type: functional
Micrococcus luteus [18] = experiment: Antibacterial activity against Micrococcus luteus IFC 12708 assessed as reduction in microbial growth; assay type: functional
Proteus vulgaris [19] = experiment: Antibacterial activity against Proteus vulgaris ATCC 3851 assessed as reduction in microbial growth; assay type: functional
Bacillus subtilis [20] = experiment: Antibacterial activity against Bacillus subtilis ATCC 6633 assessed as reduction in microbial growth; assay type: functional
Salmonella typhimurium = experiment: Antibacterial activity against Salmonella typhimurium SL1344 assessed as reduction in microbial growth; assay type: functional, Salmonella enterica subsp. enterica serovar Typhimurium; settings: Salmonella enterica
Proteus vulgaris [21] = experiment: Antibacterial activity against Proteus vulgaris assessed as reduction in bacterial growth; assay type: functional
Staphylococcus aureus [22] = experiment: Antibacterial activity against Staphylococcus aureus ATCC 29213 assessed as reduction in bacterial growth by micro-broth dilution method; assay type: functional
Bacillus subtilis [23] = experiment: Antibacterial activity against Bacillus subtilis MTCC 441 assessed as reduction in bacterial growth; assay type: functional
Pseudomonas aeruginosa [24] = experiment: Antibacterial activity against Pseudomonas aeruginosa MTCC 1034 assessed as reduction in bacterial growth; assay type: functional
Pseudomonas aeruginosa [25] = experiment: Antibacterial activity against Pseudomonas aeruginosa MCCB 0035 assessed as reduction in bacterial growth by micro-broth dilution method; assay type: functional
Staphylococcus aureus [26] = experiment: Antibacterial activity against Staphylococcus aureus ATCC 6538p assessed as reduction in microbial growth; assay type: functional
Escherichia coli [27] = experiment: Antibacterial activity against Escherichia coli ATCC 25922 assessed as reduction in microbial growth; assay type: functional
Micrococcus luteus [28] = experiment: Antibacterial activity against Micrococcus luteus assessed as reduction in microbial growth; assay type: functional
Staphylococcus aureus [29] = experiment: Antibacterial activity against Staphylococcus aureus MTCC 3160 assessed as reduction in bacterial growth; assay type: functional
Bacillus subtilis [30] = experiment: Antibacterial activity against Bacillus subtilis MTTC 441 assessed as reduction in bacterial growth; assay type: functional
Klebsiella pneumoniae = experiment: Antibacterial activity against Klebsiella pneumoniae assessed as inhibition of bacterial growth; assay type: functional
Staphylococcus aureus [31] = experiment: Antibacterial activity against Staphylococcus aureus assessed as inhibition of bacterial growth; assay type: functional
Staphylococcus aureus [32] = experiment: Antibacterial activity against Staphylococcus aureus; assay type: functional
Bacillus subtilis [33] = experiment: Antibacterial activity against Bacillus subtilis NCIM-2063 by CLSI based microdilution assay; assay type: functional
Escherichia coli [34] = experiment: Antibacterial activity against Escherichia coli NCIM-2065 by CLSI based microdilution assay; assay type: functional
Staphylococcus aureus [35] = experiment: Antibacterial activity against Staphylococcus aureus NCIM-2079 by CLSI based microdilution assay; assay type: functional
Proteus vulgaris [36] = experiment: Antibacterial activity against Proteus vulgaris NCIM-2027 by CLSI based microdilution assay; assay type: functional
Bacillus cereus [37] = experiment: Antibacterial activity against Bacillus cereus NCIM-2156 by CLSI based microdilution assay; assay type: functional
Staphylococcus aureus [38] = experiment: Antibacterial activity against Staphylococcus aureus assessed as reduction in bacterial growth incubated for 24 hrs by broth microdilution method; assay type: functional
Staphylococcus aureus [39] = experiment: Antibacterial activity against Staphylococcus aureus assessed as diameter of inhibition zone incubated for 24 hrs by […]; assay type: functional

Question: What does the source list for `CCn1cc(C(=O)O)c(=O)c2cc(F)c(N3CCNCC3)cc21` [NORFLOXACIN]?
Answer: MIC (Staphylococcus aureus [1]): 0.125 µg/mL (≈ 0.391 µM); MIC (Escherichia coli [2]): 0.125 µg/mL (≈ 0.391 µM); MIC (Pseudomonas aeruginosa [3]): 0.125 µg/mL (≈ 0.391 µM)

Question: Which results are given for `Sc1nncn1/N=C/c1cccc(Oc2ccccc2)c1`?
Answer: zone of inhibition at 100 µg/mL (Bacillus subtilis [4]): 15 mm; zone of inhibition at 100 µg/mL (Staphylococcus aureus [5]): 15 mm; zone of inhibition at 100 µg/mL (Escherichia coli [6]): 15 mm

Question: Which results are given for `NC(=O)NCn1nc(NCCCNc2ccnc3cc(Cl)ccc23)n(N)c1=S`?
Answer: MIC (Proteus mirabilis): 12.5 µg/mL (≈ 29.6 µM); MIC (Bacillus subtilis [7]): 12.5 µg/mL (≈ 29.6 µM); MIC (Bacillus cereus [8]): 3.12 µg/mL (≈ 7.41 µM); MIC (Staphylococcus aureus [9]): 6.25 µg/mL (≈ 14.8 µM); MIC (Proteus vulgaris [10]): 12.5 µg/mL (≈ 29.6 µM); MIC (Escherichia coli [11]): 3.12 µg/mL (≈ 7.41 µM); MIC (Pseudomonas aeruginosa [12]): 50 µg/mL (≈ 119 µM)

Question: With `CCCCCCCCCCCCCCCc1nnc(S)n1/N=C\c1cc(OC)c(OC)c(OC)c1` as the compound, how does the MIC (Escherichia coli [13]) read?
Answer: Its MIC is 24.7 µg/mL (≈ 48.9 µM).

Question: And the MIC (Bacillus subtilis [14])?
Answer: Its MIC is 24.7 µg/mL (≈ 48.9 µM).

Question: And the MIC (Pseudomonas aeruginosa [15])?
Answer: Its MIC is 12.3 µg/mL (≈ 24.4 µM).

Question: With `Cc1ccc(NC(=O)Cn2cc(Cn3cc(CC(NC(=O)C(C)c4ccc(CC(C)C)cc4)C(=O)NC(Cc4ccccc4)C(N)=O)c4ccccc43)nn2)c(C)c1` (stereo not given) as the compound, how does the MIC (Escherichia coli [16]) read?
Answer: Its MIC is 25 µg/mL (≈ 32 µM).

Question: With `CC1(C)S[C@@H]2[C@H](NC(=O)[C@H](N)c3ccccc3)C(=O)N2[C@H]1C(=O)O` [AMPICILLIN] as the compound, how does the MIC (Escherichia coli [17]) read?
Answer: The MIC was 1 µg/mL (≈ 2.86 µM).

Question: What about the MIC (Micrococcus luteus [18]) of the same compound?
Answer: The MIC was 1.56 µg/mL.

Question: And the MIC (Proteus vulgaris [19])?
Answer: Its MIC is 1.56 µg/mL.

Question: What about the MIC (Bacillus subtilis [20]) of the same compound?
Answer: The MIC was 1.56 µg/mL.

Question: And the MIC (Salmonella typhimurium)?
Answer: The MIC was 1.56 µg/mL.

Question: And the MIC (Proteus vulgaris [21])?
Answer: The MIC was 1.56 µg/mL (≈ 4.46 µM).

Question: And the MIC (Staphylococcus aureus [22])?
Answer: Its MIC is 2 µg/mL (≈ 5.72 µM).

Question: What about the MIC (Bacillus subtilis [23]) of the same compound?
Answer: Its MIC is 0.5 µg/mL (≈ 1.43 µM).

Question: What about the MIC (Pseudomonas aeruginosa [24]) of the same compound?
Answer: Its MIC is 0.5 µg/mL (≈ 1.43 µM).

Question: And the MIC (Pseudomonas aeruginosa [25])?
Answer: Its MIC is 4 µg/mL (≈ 11.4 µM).

Question: What about the MIC (Staphylococcus aureus [26]) of the same compound?
Answer: The MIC was 1.56 µg/mL.

Question: And the MIC (Escherichia coli [27])?
Answer: The MIC was 1.56 µg/mL.

Question: And the MIC (Micrococcus luteus [28])?
Answer: The MIC was 1.56 µg/mL.

Question: What about the MIC (Bacillus subtilis [14]) of the same compound?
Answer: Its MIC is 1.56 µg/mL (≈ 4.46 µM).

Question: `O=C(Cn1cc(COc2cccc(/C=N/c3ccc(F)cc3)c2)nn1)Nc1ccc(Br)cc1` was tested. Which MIC (Staphylococcus aureus [29]) did it give?
Answer: Its MIC is 6 µM (≈ 3.05 µg/mL).

Question: What about the MIC (Bacillus subtilis [30]) of the same compound?
Answer: The MIC was 12 µM (≈ 6.1 µg/mL).

Question: What does the source list for `O=C(O)c1cn(C2CC2)c2cc(N3CCNCC3)c(F)cc2c1=O` [CIPROFLOXACIN]?
Answer: MIC (Klebsiella pneumoniae): 16 µg/mL (≈ 48.3 µM); MIC (Staphylococcus aureus [29]): 9 µM (≈ 2.98 µg/mL); MIC (Proteus mirabilis): 12.5 µg/mL (≈ 37.7 µM); MIC (Staphylococcus aureus [31]): 8 µg/mL (≈ 24.1 µM); MIC (Bacillus subtilis [7]): 12.5 µg/mL (≈ 37.7 µM); MIC (Bacillus cereus [8]): 3.12 µg/mL (≈ 9.43 µM); MIC (Staphylococcus aureus [32]): 9 µM (≈ 2.98 µg/mL); MIC (Bacillus subtilis [14]): 18 µg/mL (≈ 54.3 µM); MIC (Proteus vulgaris [10]): 12.5 µg/mL (≈ 37.7 µM); MIC (Pseudomonas aeruginosa [15]): 18 µg/mL (≈ 54.3 µM)

Question: `O=C(CNN1C(=O)CSC1c1ccc(-c2ccc(F)cc2)cc1)NN1C(c2ccc([N+](=O)[O-])cc2)=NNC1S` (stereo not given) was tested. Which MIC (Bacillus subtilis [33]) did it give?
Answer: The MIC was 3.12 µg/mL (≈ 5.51 µM).

Question: What about the MIC (Escherichia coli [34]) of the same compound?
Answer: The MIC was 3.12 µg/mL (≈ 5.51 µM).

Question: And the MIC (Staphylococcus aureus [35])?
Answer: Its MIC is 3.12 µg/mL (≈ 5.51 µM).

Question: What about the MIC (Proteus vulgaris [36]) of the same compound?
Answer: The MIC was 3.12 µg/mL (≈ 5.51 µM).

Question: What about the MIC (Bacillus cereus [37]) of the same compound?
Answer: The MIC was 3.12 µg/mL (≈ 5.51 µM).

Question: What does the source list for `O=c1cc(OCCn2cc(Cn3cc(Cl)c(=O)n(Cc4cn(CCOc5cc(=O)oc6ccccc56)nn4)c3=O)nn2)c2ccccc2o1`?
Answer: MIC (Staphylococcus aureus [38]): 7.23 µg/mL (≈ 10.6 µM); diameter of the inhibition zone (DIZ) (Staphylococcus aureus [39]): 26 mm
